According to US10781188B2, “Contrast agents” (BRACCO IMAGING S.P.A., priority 2015, dated 2020):

How the values were obtained:
[1] = Relaxivity r1p in human plasma, 37° C.; type: physicochemical; settings: for r1p at 0.47 T 37° C., human plasma: 0.47 T (20 MHz); for r1p at 1.41 T 37° C., human plasma: 1.41 T (60 MHz)
Procedure: (§1) The relaxometric properties of some representative complex compounds according to the invention have been determined at different magnetic field strengths, e.g. including 0.47 and 1.41 T, at 37° C. and in different media (physiologic solution and human plasma) and compared with relaxivity values measured, at the same conditions, for some Gd-Complex of the market having an analogous cyclic coordination cage.
(§2) The longitudinal water proton relaxation rate (R1=1/T1) was measured at 0.47 T with a Minispec MQ-20 spectrometer (Bruker Biospin, Germany) operating at a proton Larmor frequency of 20 MHz; MR experiments at 1.41 T were performed using a Minispec MQ-60 spectrometer (Bruker Biospin, Germany) operating at a proton Larmor frequency of 60 MHz.
(§3) All test articles were used as supplied and diluted in the selected medium (physiologic solution or human plasma) by weighting the required amount of paramagnetic chelated complex to get a 5 or 10 mM starting solution.
(§4) Five different concentration samples (0.1, 0.25, 0.5, 0.75 and 1 mM) for each medium have been prepared by further dilution of the starting 5 or 10 mM solution.
(§5) Relaxivity measurements were performed at 0.47 T and 1.41 T at a preset temperature sample of 37° C., kept constant by means of a thermostatic bath connected to the sample holder of the spectrometer. The five sample solutions have been preliminary pre-heated at 37° C. in an external thermostatic bath and then left 10 minutes inside the internal bath to assure the stabilization of the temperature. Longitudinal relaxation time T1 was measured by means of a standard inversion recovery sequence, where the inversion time (TI) was varied from 10 ms to at least 5 times T1 in 15 steps. Statistical analysis (mono-exponential fitting for T1 measurement, linear fitting for the evaluation of longitudinal relaxivity) was performed by Mathematica® (Wolfram, USA). Errors on the estimated parameters were evaluated by the fitting procedure.

[2] = Relaxivity r1p in physiologic solution (saline), 37° C.; type: physicochemical; settings: for r1p at 0.47 T 37° C., saline: 0.47 T (20 MHz); for r1p at 1.41 T 37° C., saline: 1.41 T (60 MHz)
Procedure: as §1, §2, §3, §4, §5

O=C(O)CN1CCN(CC(=O)O)CCN(CC(=O)O)CCN(CC(=O)O)CC1 [Doratem ®, Gd-DOTA, reference compound]
r1p at 0.47 T 37° C., human plasma [1]: 4.5 mM⁻¹ s⁻¹ | r1p at 1.41 T 37° C., human plasma [1]: 3.6 mM⁻¹ s⁻¹ | r1p at 0.47 T 37° C., saline [2]: 3.6 mM⁻¹ s⁻¹ | r1p at 1.41 T 37° C., saline [2]: 3.2 mM⁻¹ s⁻¹

NCC(O)CN1CCN(CC(=O)O)CCN(CC(=O)O)CCN(CC(=O)O)CC1 (centres unmarked) [Comparative 1, reference compound]
r1p at 0.47 T 37° C., human plasma [1]: 6.25 mM⁻¹ s⁻¹ | r1p at 1.41 T 37° C., human plasma [1]: 5.3 mM⁻¹ s⁻¹ | r1p at 0.47 T 37° C., saline [2]: 4.3 mM⁻¹ s⁻¹ | r1p at 1.41 T 37° C., saline [2]: 3.8 mM⁻¹ s⁻¹

O=C([O-])CN1CCN(CC(=O)O)CCN(CC(=O)O)CCN(CC(O)CNC(CCc2ccccc2)P(=O)(O)[O+]=[Na])CC1 (centres unmarked) [Chelate Complex 6]
r1p at 0.47 T 37° C., human plasma [1]: 13.8 mM⁻¹ s⁻¹ | r1p at 1.41 T 37° C., human plasma [1]: 11.9 mM⁻¹ s⁻¹ | r1p at 0.47 T 37° C., saline [2]: 8.3 mM⁻¹ s⁻¹ | r1p at 1.41 T 37° C., saline [2]: 8.2 mM⁻¹ s⁻¹

O=C(O)CN1CCN(CC(=O)O)CCN(CC(O)CN(CCOCCO)CCOCCO)CCN(CC(=O)O)CC1 (centres unmarked) [Chelate Complex 14]
r1p at 0.47 T 37° C., human plasma [1]: 8.8 mM⁻¹ s⁻¹ | r1p at 1.41 T 37° C., human plasma [1]: 8.0 mM⁻¹ s⁻¹ | r1p at 0.47 T 37° C., saline [2]: 6.9 mM⁻¹ s⁻¹ | r1p at 1.41 T 37° C., saline [2]: 6.5 mM⁻¹ s⁻¹

CCOP(=O)(O)CN(Cc1ccccc1)CC(O)CN1CCN(CC(=O)O)CCN(CC(=O)O)CCN(CC(=O)O)CC1 (centres unmarked) [Chelate Complex 8]
r1p at 0.47 T 37° C., human plasma [1]: 10.2 mM⁻¹ s⁻¹ | r1p at 1.41 T 37° C., human plasma [1]: 9.0 mM⁻¹ s⁻¹ | r1p at 0.47 T 37° C., saline [2]: 7.4 mM⁻¹ s⁻¹ | r1p at 1.41 T 37° C., saline [2]: 7.3 mM⁻¹ s⁻¹

O=C(O)CN1CCN(CC(=O)O)CCN(CC(O)CN2CC(CO)(CO)C(O)C(CO)(CO)C2)CCN(CC(=O)O)CC1 (centres unmarked) [Chelate Complex 5]
r1p at 0.47 T 37° C., human plasma [1]: 9.6 mM⁻¹ s⁻¹ | r1p at 1.41 T 37° C., human plasma [1]: 8.9 mM⁻¹ s⁻¹ | r1p at 0.47 T 37° C., saline [2]: 7.7 mM⁻¹ s⁻¹ | r1p at 1.41 T 37° C., saline [2]: 7.7 mM⁻¹ s⁻¹

O=C(O)CN1CCN(CC(=O)O)CCN(CC(O)CNCP(=O)(O)O)CCN(CC(=O)O)CC1 (centres unmarked) [Chelate Complex 2]
r1p at 0.47 T 37° C., human plasma [1]: 8.5 mM⁻¹ s⁻¹ | r1p at 1.41 T 37° C., human plasma [1]: 7.5 mM⁻¹ s⁻¹ | r1p at 0.47 T 37° C., saline [2]: 7.0 mM⁻¹ s⁻¹ | r1p at 1.41 T 37° C., saline [2]: 6.5 mM⁻¹ s⁻¹

CC(O)CN1CCN(CC(=O)O)CCN(CC(=O)O)CCN(CC(=O)O)CC1 (centres unmarked) [ProHance ®, Gd-HPDO3A, reference compound]
r1p at 0.47 T 37° C., human plasma [1]: 4.9 mM⁻¹ s⁻¹ | r1p at 1.41 T 37° C., human plasma [1]: 4.15 mM⁻¹ s⁻¹ | r1p at 0.47 T 37° C., saline [2]: 3.5 mM⁻¹ s⁻¹ | r1p at 1.41 T 37° C., saline [2]: 3.1 mM⁻¹ s⁻¹

O=C(O)CN1CCN(CC(=O)O)CCN(CC(O)CN(CC(=O)O)C(CO)CO)CCN(CC(=O)O)CC1 (centres unmarked) [Chelate Complex 13]
r1p at 0.47 T 37° C., human plasma [1]: 7.5 mM⁻¹ s⁻¹ | r1p at 1.41 T 37° C., human plasma [1]: 7.1 mM⁻¹ s⁻¹ | r1p at 0.47 T 37° C., saline [2]: 5.8 mM⁻¹ s⁻¹ | r1p at 1.41 T 37° C., saline [2]: 5.9 mM⁻¹ s⁻¹

O=C(O)CN1CCN(CC(=O)O)CCN(CC(O)CN(CC(=O)O)C2CCCCC2)CCN(CC(=O)O)CC1 (centres unmarked) [Chelate Complex 19]
r1p at 0.47 T 37° C., human plasma [1]: 9.1 mM⁻¹ s⁻¹ | r1p at 1.41 T 37° C., human plasma [1]: 8.05 mM⁻¹ s⁻¹ | r1p at 0.47 T 37° C., saline [2]: 6.5 mM⁻¹ s⁻¹ | r1p at 1.41 T 37° C., saline [2]: 6.1 mM⁻¹ s⁻¹

CN(CC(O)CN1CCN(CC(=O)O)CCN(CC(=O)O)CCN(CC(=O)O)CC1)CC(O)C(O)C(O)C(O)CO (centres unmarked) [Chelate Complex 21]
r1p at 0.47 T 37° C., human plasma [1]: 8.5 mM⁻¹ s⁻¹ | r1p at 1.41 T 37° C., human plasma [1]: 8.3 mM⁻¹ s⁻¹ | r1p at 0.47 T 37° C., saline [2]: 6.1 mM⁻¹ s⁻¹ | r1p at 1.41 T 37° C., saline [2]: 6.1 mM⁻¹ s⁻¹
